Source: PubChem BioAssay (NCI)
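All cell lines were grown in 96-well plates and treated with compound for 48 hours. TGI: total growth inhibition.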

Legend:
Assay in all cases: NCI anticancer screen, dose series, 48 h
SNB-75 CNS = tested on: SNB-75 CNS
CAKI-1 renal = tested on: CAKI-1 renal
HOP-92 NSCLC = tested on: HOP-92 NSCLC
MCF7 breast = tested on: MCF7 breast
UACC-257 melanoma = tested on: UACC-257 melanoma
HS 578T breast = tested on: HS 578T breast
NCI-H522 lung = tested on: NCI-H522 lung
HCT-116 colon = tested on: HCT-116 colon
K-562 leukemia = tested on: K-562 leukemia
SN12C renal = tested on: SN12C renal
COLO 205 colon = tested on: COLO 205 colon
A498 renal = tested on: A498 renal
OVCAR-5 ovarian = tested on: OVCAR-5 ovarian
SR leukemia = tested on: SR leukemia
SK-MEL-5 melanoma = tested on: SK-MEL-5 melanoma
T-47D breast = tested on: T-47D breast
HCC-2998 colon = tested on: HCC-2998 colon
A549 NSCLC = tested on: A549 NSCLC
RPMI-8226 leukemia = tested on: RPMI-8226 leukemia

| SMILES | TGI (SNB-75 CNS) [µM] | TGI (CAKI-1 renal) [µM] | TGI (HOP-92 NSCLC) [µM] | TGI (MCF7 breast) [µM] | TGI (UACC-257 melanoma) [µM] | TGI (HS 578T breast) [µM] | TGI (NCI-H522 lung) [µM] | TGI (HCT-116 colon) [µM] | TGI (K-562 leukemia) [µM] | TGI (SN12C renal) [µM] | TGI (COLO 205 colon) [µM] | TGI (A498 renal) [µM] | TGI (OVCAR-5 ovarian) [µM] | TGI (SR leukemia) [µM] | TGI (SK-MEL-5 melanoma) [µM] | TGI (T-47D breast) [µM] | TGI (HCC-2998 colon) [µM] | TGI (A549 NSCLC) [µM] | TGI (RPMI-8226 leukemia) [µM] |
| --- | --- | --- | --- | --- | --- | --- | --- | --- | --- | --- | --- | --- | --- | --- | --- | --- | --- | --- | --- |
| Cc1cc(/N=C/c2ccc(Cl)cc2)n(-c2ccccc2)n1 | > 100 | > 100 | > 100 | > 100 | > 100 | > 100 | > 100 | > 100 | > 100 | > 100 | > 100 | 79.7 | > 100 | > 100 | 68.8 | 79.4 | 71 | > 100 | > 100 |
| O=C(O)Cn1ccc(=O)c2c([N+](=O)[O-])cccc21 | > 100 | > 100 |  | > 100 | > 100 | > 100 | > 100 | > 100 | > 100 | > 100 | > 100 | > 100 | > 100 | > 100 | > 100 | > 100 | > 100 | > 100 |  |
| Clc1ccc(Cn2cc(/C=N/n3cnnc3)c3ccccc32)cc1 | 68.5 | > 100 | 68.3 | > 100 | > 100 | > 100 | > 100 | > 100 | > 100 | > 100 | > 100 | 4.34 | 42.5 | > 100 | > 100 | 52.3 | 31.4 | > 100 | > 100 |
| COC(=O)[C@]1(C)CCCC2(C)C3=C(CCC21)CC1(CC3)SCCS1 (stereo partly drawn) | > 10 | > 10 | > 10 | > 10 | > 10 | > 10 | > 10 | > 10 | > 10 | > 10 | > 10 | > 10 |  | > 10 | > 10 | > 10 | > 10 | > 10 | > 10 |
| COC(=O)C1(Cc2ccccc2)Cc2c(C)ccc(C)c2C1=O (stereo not drawn) | 61.3 |  | 54.3 | 81.1 | 64.9 | 62 | 56.2 | > 100 | > 100 | > 100 | 25.4 | > 100 | > 100 | > 100 | 28.8 | > 100 | 97.7 | 36.4 | 75.4 |
| C=CCCCCCCCCC(=O)ON(Cc1ccc(O)c(OC)c1)C(=O)C(F)(F)F | > 100 |  | > 100 | > 100 | > 100 | > 100 |  | > 100 | > 100 | > 100 | > 100 | > 100 | > 100 | > 100 | > 100 | > 100 | > 100 | > 100 | > 100 |
| N#C[C@H](C(=O)c1ccccc1F)c1nc2ccccc2[nH]1 | > 100 | > 100 | > 100 | > 100 | > 100 | > 100 |  | > 100 | > 100 | > 100 | > 100 | > 100 | > 100 | > 100 |  | > 100 | > 100 | > 100 | > 100 |
| O=S(=O)(/N=C(\NO)Nc1ccc(Cl)cc1)c1cc(S(=O)(=O)c2ccccc2)cs1 |  | 46.7 | 31.5 | 35.9 | 39 | 54.8 | 25.2 | 26.4 | 31.6 | 33.6 | 34.2 | 28.4 | 42.5 | 95.7 | 21.9 | 44.3 | 27.6 | 93.1 | 44.8 |
| N#Cc1c(N)nc2n[nH]c(N)c2c1-c1ccccc1 |  | 19.4 | 8.01 | 24.7 | > 83.6 | 24.2 | 18 | 46.1 | > 100 | 31.8 | 24.3 | 5.77 | > 100 | > 60.1 | 26.7 | 3.9 | > 57 | > 65.5 | > 53.8 |
| O=C(/C=C/c1ccc(Cl)cc1)c1ccc(Cl)s1 | > 100 |  | > 100 | 44.6 | > 100 | > 100 | > 100 | 22.4 | > 100 | > 100 | > 100 | > 100 | > 100 | > 100 |  | > 100 | 47.3 | > 100 | 80.1 |
| CON(C)C(=O)C(C)NC(=O)OC(C)(C)C (stereo not drawn) | > 100 |  | > 100 | > 100 | > 100 | > 100 |  | > 100 | > 100 | > 100 | > 100 | > 100 | > 100 | > 100 | > 100 | > 100 | > 100 | > 100 | > 100 |
| CC(C)CCCC(C)[C@H]1CCC2[C@@H]3CCC4Cc5nc6c(nc5C[C@]4(C)C3CC[C@@]21C)CC1CC[C@@H]2C(CC[C@@]3(C)C2CC[C@@H]3O)[C@@]1(C)C6 (stereo partly drawn) | > 100 |  | > 100 | > 100 | > 100 | > 100 |  | > 100 | > 100 | > 100 | > 100 | > 100 | > 100 | > 100 | > 100 | > 100 |  | > 100 | > 100 |
| CCN(CC)Cc1ccc(Nc2c3ccccc3nc3ccccc23)cc1 |  | 4.66 | 11.9 | 4.36 | 3.21 | 21.8 | 3.56 | 6.99 | 7.69 | 7.66 | 5.78 | 9.41 | 5.46 | 22.2 | 3.15 | 16.7 | 2.4 | 2.82 |  |
| CC(=O)Oc1ccc2cc(Oc3ccccc3)c(=O)oc2c1 | > 100 | > 100 | > 100 | > 100 | > 100 | > 100 | 70.7 | > 100 |  | > 100 |  | > 100 | > 100 | > 100 | > 100 | > 100 | > 100 | > 100 | > 100 |
| CCCCOc1ccc(S(=O)(=O)/N=C(\N)Nc2ccc(Cl)cc2)cc1 | 36.3 |  | 23.7 | 26.9 | 27.1 | 40.2 | 23 | 30.3 | 37.4 | 30.1 | > 100 | 24.6 | 33.2 | 28.7 | 47.8 | 29.1 |  | 45.8 | 45.8 |
| Nc1nc2c(c(=O)[nH]1)NC(CCNc1ccc(C(=O)O)cc1)CN2 (stereo not drawn) | > 100 | > 100 | > 100 | > 100 | > 100 | > 100 | > 100 | > 100 | > 100 | > 100 | > 100 | > 100 | > 100 | > 100 | > 100 | > 100 |  | > 100 | > 100 |
| O=C(O)Cc1ccc(Oc2nc3ccccc3nc2-c2ccccc2)cc1 | > 100 | > 100 |  | > 100 | > 100 | > 100 | > 100 | > 100 | > 100 | > 100 | > 100 | > 100 | > 100 | > 100 | > 100 | > 100 | 99.5 | > 100 | > 100 |
| O=C(Nc1ccc(Cl)c(C(F)(F)F)c1)C(=O)c1c(O)c2ccccc2oc1=O | > 100 | > 100 | > 100 | > 100 | > 100 | > 100 | > 100 | > 100 | > 100 | > 100 |  | > 100 | > 100 | > 100 | > 100 | > 100 | > 100 | > 100 | > 100 |
| Cc1cc(C)nc(NC(=S)Nc2ccc(Cl)cc2)c1 | 63.7 | > 100 |  | > 100 | > 100 | > 100 | 39.1 | > 100 | > 100 | > 100 | > 100 | > 100 | > 100 | > 100 | > 100 | > 100 |  | > 100 | > 100 |
| O/N=C1\CSc2ccccc2C1 |  | > 100 | > 100 | > 100 | > 100 | > 100 | > 100 | > 100 | > 100 | > 100 | > 100 | > 100 | > 100 | > 100 | > 100 | > 100 | > 100 | > 100 | > 100 |
| COc1ccc2c(C(=O)c3c(C)n(CCN4CCOCC4)c4ccccc34)cccc2c1 |  | > 100 | > 100 | 55.9 | 97.9 | 40.6 | 50.2 | > 100 | > 100 | > 100 | 43.4 | > 100 | > 100 | > 100 | 35.2 | > 100 |  | > 100 | 83.6 |
